Reference: US20120196342A1, “Industrial Applications of A Novel Aldo/Keto Reductase Of Zymomonas Mobilis” (priority 2011, published 2012)
Where a chain is given by its changes, count along the chain named. In names and notes the source's numbering stands. Read-outs that look alike come from different tables or passages of the source. One block for each molecule: values may come before it.

Assays:
recombinant ZMO0976 = target: T1, recombinant ZMO0976 (Zymomonas mobilis, UniProt Q5NNW0); assay: Substrate and cofactor profile and Michaelis-Menten kinetics of recombinant ZMO0976; assay type: biochemical, Z. mobilis
T1 sequence (Q5NNW0 1-340): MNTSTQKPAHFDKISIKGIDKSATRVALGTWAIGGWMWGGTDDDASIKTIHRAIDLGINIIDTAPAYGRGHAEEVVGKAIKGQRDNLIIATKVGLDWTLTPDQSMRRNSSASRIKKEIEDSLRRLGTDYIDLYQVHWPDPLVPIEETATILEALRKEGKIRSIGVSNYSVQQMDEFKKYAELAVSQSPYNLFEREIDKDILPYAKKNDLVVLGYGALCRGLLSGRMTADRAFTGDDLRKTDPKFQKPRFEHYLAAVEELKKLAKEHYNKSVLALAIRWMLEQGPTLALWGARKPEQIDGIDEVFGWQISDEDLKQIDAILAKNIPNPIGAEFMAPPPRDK
Experimental: (§1) E. coli cells were prepared for enzymatic assays using the procedure described in, for example, Akinterinwa, and Cirino, “Heterologous expression of D-xylulokinase from Pichia stipitis enables high levels of xylitol production by engineered Escherichia coli growing on xylose,” Metabolic Engineering 11(1): pp. 48-55. Briefly, cells were harvested by centrifugation at 5,000 g at 4° C. for 30 min. Cells were washed once with extraction buffer [10 mM Tris-HCl pH 7.5, 5 mM MgCl2, 1 mM dithothreitol (DTT) and 1 mM phenylmethylsulfonyl fluoride (PMSF) (Sigma-Aldrich, St. Louis, Mo.)]. Washed cell pellets were stored at −20° C. until use. Cell pellets were resuspended to an OD of 50 in equilibration buffer (50 mM Na2HPO4, 300 mM NaCl and 10 mM imidazole at pH 8 (Sigma-Aldrich, St. Louis, Mo.)) supplemented with 1 mM DTT and 1 mM PMSF, and sonicated (8 cycles of 10 s with 30 s cooling period). Cell debris was discarded after centrifugation at 16,000 g for 20 min at 4° C. Supernatant was used as cell-free extract (CFE) for enzymatic assays. Bradford Assay was used for estimation of protein concentration in the extract. His-tagged protein in the cell-free extract was purified at 4° C. using HIS-Select® HF Nickel Affinity Gel (Sigma-Aldrich, St. Louis, Mo.), which employs immobilized metal-ion affinity chromatography (IMAC). Manufacturer's protocol for large scale purification was followed. Briefly, 10 ml of cell-free extract was added to 1 ml of affinity gel in equilibration buffer. After overnight incubation, the gel was washed five times with equilibration buffer. The bound his-tagged protein was then eluted using 2 ml of elution buffer (50 mM Na2HPO4, 300 mM NaCl and 250 mM imidazole at pH 8). Imidazole was removed by overnight dialysis at 4° C. using extraction buffer as the dialysis solution.
(§2) Cell-free extract for Z. mobilis was prepared as above except that extraction buffer was used for sonication and after which, cell debris were spun down at higher centrifugal force (53,300 g). All enzymatic assay reactions were carried out in a final volume of 200 μl on a microplate. NAD(P)H (Sigma-Aldrich, St. Louis, Mo.) absorbance was measured at 340 nm using Spectramax M5 Plus spectrophotometer (Molecular devices, Sunnyvale, Calif.). Xylose reductase was assayed in McIlvaine buffer at pH 7.2 (prepared by adding 16.5 ml of 0.2 M Na2HPO4 to 3.5 ml of 0.1 M citric acid (Sigma-Aldrich, St. Louis, Mo.)) containing 0.35 mM NADPH or NADH (as indicated) and an appropriate volume of sample (cell-free extract or purified protein) according to Viikari, L. and M. Korhola (1986), “Fructose metabolism in Zymomonas mobilis,” Applied Microbiology and Biotechnology 24(6): 471-476.
(§3) Xylose concentration in the assay mixture is indicated in the text. For measuring the catalytic activity of xylose reductase towards other substrates, similar assay conditions were used. Km and Vmax were determined by varying the substrate concentrations in the assay mixture and fitting the data to Lineweaver-Burk equation: 1/v=(Km/Vmax) […]+1/Vmax. Xylitol concentration was determined enzymatically. The reaction was carried out with a total volume of 200 μl in 42 mM Tris-HCl buffer at pH 8.5, 5 mM NAD, 10 mM MgSO4 (Sigma-Aldrich, St. Louis, Mo.), 4 U/ml sorbitol dehydrogenase (Roche Diagnostics, Indianapolis, Ind.) and 10 μl of sample. Xylitol concentration was estimated based on the amount of NADH produced by xylitol containing samples compared to that produced by xylitol standards. SDS-PAGE and Coommassie blue staining were used to confirm the expression of ZMO0976 and mZMO0976 proteins. 15 μg of cell-free extract protein and 1 μg of purified protein were loaded on a 12% Tris-HCl gel (Bio-Rad, Hercules, Calif.). Cell growth was determined by measuring optical density (OD) at 600 nm using spectrophotometer (Beckman Coulter DU 530, Brea, Calif.).

Z. mobilis = details: cited from earlier work
[1] = NADPH-dependent xylose reductase (XR) activity of recombinant ZMO0976/mZMO0976, E. coli UT5600 cell-free extract and purified protein; assay type: biochemical; details: for XR activities of the purified proteins: His-tag purified protein, NADPH; for Xylose reductase activity: NADPH as cofactor, purified protein or cell-free extract (CFE) as named in label
Experimental: as §1, §2
as §3, with “Xylitol concentration was estimated based on the amount of NADH produced by xylitol containing samples compared to that produced by xylitol standards. SDS-PAGE and Coommassie blue staining were used to confirm the expression of ZMO0976 and mZMO0976 proteins. 15 μg of cell-free extract protein and 1 μg of purified protein were loaded on a 12% Tris-HCl gel (Bio-Rad, Hercules, Calif.).” left out

[2] = Reductase activity of purified ZMO0976/mZMO0976 towards acetaldehyde; assay type: biochemical; details: for Specific XR activity, Acetaldehyde (520 mM): purified protein, no unit in table, in mU/mg protein
Experimental: (§4) E. coli cells were prepared for enzymatic assays using the procedure described in, for example, Akinterinwa, and Cirino, “Heterologous expression of D-xylulokinase from Pichia stipitis enables high levels of xylitol production by engineered Escherichia coli growing on xylose,” Metabolic Engineering 11(1): pp. 48-55. Briefly, cells were harvested by centrifugation at 5,000 g at 4° C. for 30 min. Cells were washed once with extraction buffer [10 mM Tris-HCl pH 7.5, 5 mM MgCl2, 1 mM dithothreitol (DTT) and 1 mM phenylmethylsulfonyl fluoride (PMSF) (Sigma-Aldrich, St. Louis, Mo.)]. Washed cell pellets were stored at −20° C. until use. Cell pellets were resuspended to an OD of 50 in equilibration buffer (50 mM Na2HPO4, 300 mM NaCl and 10 mM imidazole at pH 8 (Sigma-Aldrich, St. Louis, Mo.)) supplemented with 1 mM DTT and 1 mM PMSF, and sonicated (8 cycles of 10 s with 30 s cooling period). Cell debris was discarded after centrifugation at 16,000 g for 20 min at 4° C. Supernatant was used as cell-free extract (CFE) for enzymatic assays. Bradford Assay was used for estimation of protein concentration in the extract. His-tagged protein in the cell-free extract was purified at 4° C. using HIS-Select® HF Nickel Affinity Gel (Sigma-Aldrich, St. Louis, Mo.), which employs immobilized metal-ion affinity chromatography (IMAC). […]
(§5) Cell-free extract for Z. mobilis was prepared as above except that extraction buffer was used for sonication and after which, cell debris were spun down at higher centrifugal force (53,300 g). […] NAD(P)H (Sigma-Aldrich, St. Louis, Mo.) absorbance was measured at 340 nm using Spectramax M5 Plus spectrophotometer (Molecular devices, Sunnyvale, Calif.). […]
(§6) Xylose concentration in the assay mixture is indicated in the text. […] Km and Vmax were determined by varying the substrate concentrations in the assay mixture and fitting the data to Lineweaver-Burk equation: 1/v=(Km/Vmax) […]+1/Vmax. Xylitol concentration was determined enzymatically. […] Cell growth was determined by measuring optical density (OD) at 600 nm using spectrophotometer (Beckman Coulter DU 530, Brea, Calif.).

[3] = Reductase activity of purified ZMO0976/mZMO0976 towards benzaldehyde; assay type: biochemical; details: for Specific XR activity, Benzaldehyde (2 mM): purified protein, no unit in table, in mU/mg protein
Experimental: as §4, §5, §6

[4] = Reductase activity of purified ZMO0976/mZMO0976 towards furfural; assay type: biochemical; details: for Specific XR activity, Furfural (10 mM): purified protein, no unit in table, in mU/mg protein
Experimental: as §4, §5, §6

[5] = 0.35 mM NADPH; Lineweaver-Burk fit
[6] = substrate 260 mM; NADPH cofactor; benzaldehyde = 1

Molecule: O=Cc1ccccc1 [Benzaldehyde]
Affinity of ZMO0976 compared with xylose (in words) (recombinant ZMO0976): one to two orders of magnitude higher
Km, fold lower than xylose (recombinant ZMO0976): about 150 fold
Apparent Vmax (recombinant ZMO0976; [5]): 7200 ± 200 mU/mg protein
Km (recombinant ZMO0976; 0.35 mM NADPH; Lineweaver-Burk fit; read-out: Apparent Km): 1770 µM
Activity of ZMO0976 towards the substrate (in words) (recombinant ZMO0976; NADPH as cofactor): showed activity
Relative activity (recombinant ZMO0976; substrate 2 mM; NADPH cofactor; benzaldehyde = 1): 1

Molecule: O=Cc1ccco1 [Furfural]
Affinity of ZMO0976 compared with xylose (in words) (recombinant ZMO0976): one to two orders of magnitude higher
Apparent Vmax (recombinant ZMO0976; [5]): 5000 ± 1300 mU/mg protein
Activity of ZMO0976 towards the substrate (in words) (recombinant ZMO0976; NADPH as cofactor): showed activity
Km (recombinant ZMO0976; read-out: Apparent Km; 0.35 mM NADPH; Lineweaver-Burk fit): 4150 µM
Relative activity (recombinant ZMO0976; substrate 5.2 mM; NADPH cofactor; benzaldehyde = 1): 0.81
Fold reduction in ZMO0976 activity with NADH as cofactor compared to NADPH (recombinant ZMO0976; substrate 10 mM; 0.35 mM of either cofactor): 10
Concentration at which growth is completely inhibited (Z. mobilis): 52 mM
Concentration that reduces the growth rate of Z. mobilis by 25% (Z. mobilis): 7.3 mM

Molecule: O=Cc1ccc(CO)o1 [HMF, 5-hydroxymethylfurfural]
Activity of ZMO0976 towards the substrate (in words) (recombinant ZMO0976; NADPH as cofactor): showed activity
Relative activity (recombinant ZMO0976; substrate 10 mM; NADPH cofactor; benzaldehyde = 1): 0.11
Concentration at which growth is completely inhibited (Z. mobilis): 63 mM
Concentration that reduces the growth rate of Z. mobilis by 25% (Z. mobilis): 9.5 mM

Molecule: CC=O [Acetaldehyde]
Activity of ZMO0976 towards the substrate (in words) (recombinant ZMO0976; NADPH as cofactor): showed activity
Fold reduction in ZMO0976 activity with NADH as cofactor compared to NADPH (recombinant ZMO0976; substrate 260 mM; 0.35 mM of either cofactor): 53
Relative activity (recombinant ZMO0976; [6]): 0.62

Molecule: O=C(CO)[C@@H](O)[C@H](O)[C@H](O)CO [Fructose]
Activity of ZMO0976 towards the substrate (in words) (recombinant ZMO0976; NADPH as cofactor): negligible activity
Relative activity (recombinant ZMO0976; [6]): 0

Specific XR activity, Acetaldehyde (520 mM) [2]: 2500 ± 400
Specific XR activity, Benzaldehyde (2 mM) [3]: 4030 ± 250
Specific XR activity, Furfural (10 mM) [4]: 5470 ± 60
B1: ZMO0976: 341 amino acid aldo/keto reductase of Z. mobilis ZM4, His-tagged, expressed in E. coli UT5600 (protein)
chain: T1 sequence (Q5NNW0 1-340)
modifications: His tag; sequence of aldo/keto reductase ZMO0976 (see Fig. 4A)
notes: 341 amino acid aldo/keto reductase of Z. mobilis ZM4, His-tagged, expressed in E. coli UT5600
XR activities of the purified proteins [1]: 3400 mU/mg
Xylose reductase activity ([1]; listed as Purified recombinant ZMO0976): 3400 ± 200 mU/mg protein
Xylose reductase activity ([1]; listed as ZM00976): 3400±200 mU/mg protein
acetaldehyde reductase activity [2]: 2500±400 mU/mg protein
benzaldehyde reductase activity [3]: 4030±250 mU/mg protein
furfural reductase activity [4]: 5470±60 mU/mg protein

Specific XR activity, Acetaldehyde (520 mM) [2]: 170 ± 30
Specific XR activity, Benzaldehyde (2 mM) [3]: 40 ± 10
Specific XR activity, Furfural (10 mM) [4]: 180 ± 30
B2: mZMO0976: mutated ZMO0976 from adapted strain A3, single arginine to cysteine mutation at residue 292 (C874T) (protein)
chain: T1 sequence (Q5NNW0 1-340) with R292C
modifications: His tag; sequence of aldo/keto reductase mZMO0976 (see Fig. 4B)
XR activities of the purified proteins [1]: 140 mU/mg
Xylose reductase activity [1]: 140 ± 50 mU/mg protein
